In patent US20220387491A1, “METHODS OF MAKING CELLULAR THERAPIES” (Secura Bio, Inc., priority 2019, published 2022):
Entries after “also recorded” stand apart in the source; their conditions may differ.

What was measured:
PI3K-δ [1] = target: T1, PI3K-δ (Homo sapiens, UniProt O00329); assay: PI3K-δ target inhibition in follicular lymphoma patients after oral dosing; assay type: in vivo; set-up: from tissue; host or cells: whole blood of follicular lymphoma patients after oral dosing
Experimental: (§1) The relative effects of different PI3K inhibitors on PI3K-δ and PI3K-γ cell signaling downstream of LPS and fMLP, respectively, were assessed in whole blood using phosphorylated (p)-Akt serine-473 as the readout. Briefly, LPS-stimulated monocytes and fMLP-stimulated monocytes were cultured in the presence of 2 μg/mL LPS or 50 ng/mL fMLP, respectively. After 10 minutes of stimulation, red blood cells were lysed and remaining leukocytes were fixed, permeabilized and stained with CD45, CD3, CD45RA, CD14, CD19 and p-Akt S473 (D9E clone) antibodies. Data was acquired on an LSRII cytometer (BD Biosciences) equipped with at least 4 lasers (405, 488, 561, and 640 nm). Monocytes were gated and the percentage of positive p-Akt monocytes was measured. IC50 dose curves were generated and IC50 values calculated.
(§2) At cycle 2 Day 1 pre, a timepoint corresponding to the 12 hour point when the next dose is to be given, the degree of inhibition is decreased; however, inhibition is re-established with the administration of the next dose.

T cells = assay: Expression of T cell exhaustion markers (TIM-3, LAG-3) by flow cytometry; assay type: cell-based, human
Description: (§3) These early memory T cells populations have been associated with CAR-T cells that induce complete remissions.

[2] = tested on: T cells taken from CLL patients; assay: Proportion of early memory T cell populations; assay type: cell-based, human; conditions: 200 nM; compared with standard culture conditions
Description: as §3

[3] = tested on: T cells from human donors or CLL patients; assay: Ex vivo T cell expansion; assay type: cell-based
PI3K-δ [4] = target: T1, PI3K-δ; assay: Whole blood assay, p-Akt S473 in LPS-stimulated monocytes; assay type: cell-based; set-up: from tissue; host or cells: whole blood; LPS-stimulated monocytes (gated by flow cytometry); conditions: for PI3K-δ inhibition at clinically achievable exposures (in words): whole blood assay related to clinical plasma exposure
Experimental: as §1
(§4) Whole blood potencies against PI3K-δ and PI3K-γ were measured through inhibition of p-Akt in LPS-stimulated monocytes and fMLP-stimulated monocytes, respectively. Whole blood assay IC50 values, which encompass enzyme inhibition, cell penetration, and protein binding of inhibitors, are related to reported clinical plasma exposures of each agent at recommended phase II dose (RP2D).

PI3K-γ [5] = target: T2, PI3K-γ (Homo sapiens, UniProt P48736); assay: Whole blood assay, p-Akt S473 in fMLP-stimulated monocytes; assay type: cell-based; set-up: from tissue; host or cells: whole blood; fMLP-stimulated monocytes (gated by flow cytometry); conditions: for PI3K-γ inhibition at clinically achievable exposures (in words): whole blood assay related to clinical plasma exposure
T2 sequence (P48736 whole entry): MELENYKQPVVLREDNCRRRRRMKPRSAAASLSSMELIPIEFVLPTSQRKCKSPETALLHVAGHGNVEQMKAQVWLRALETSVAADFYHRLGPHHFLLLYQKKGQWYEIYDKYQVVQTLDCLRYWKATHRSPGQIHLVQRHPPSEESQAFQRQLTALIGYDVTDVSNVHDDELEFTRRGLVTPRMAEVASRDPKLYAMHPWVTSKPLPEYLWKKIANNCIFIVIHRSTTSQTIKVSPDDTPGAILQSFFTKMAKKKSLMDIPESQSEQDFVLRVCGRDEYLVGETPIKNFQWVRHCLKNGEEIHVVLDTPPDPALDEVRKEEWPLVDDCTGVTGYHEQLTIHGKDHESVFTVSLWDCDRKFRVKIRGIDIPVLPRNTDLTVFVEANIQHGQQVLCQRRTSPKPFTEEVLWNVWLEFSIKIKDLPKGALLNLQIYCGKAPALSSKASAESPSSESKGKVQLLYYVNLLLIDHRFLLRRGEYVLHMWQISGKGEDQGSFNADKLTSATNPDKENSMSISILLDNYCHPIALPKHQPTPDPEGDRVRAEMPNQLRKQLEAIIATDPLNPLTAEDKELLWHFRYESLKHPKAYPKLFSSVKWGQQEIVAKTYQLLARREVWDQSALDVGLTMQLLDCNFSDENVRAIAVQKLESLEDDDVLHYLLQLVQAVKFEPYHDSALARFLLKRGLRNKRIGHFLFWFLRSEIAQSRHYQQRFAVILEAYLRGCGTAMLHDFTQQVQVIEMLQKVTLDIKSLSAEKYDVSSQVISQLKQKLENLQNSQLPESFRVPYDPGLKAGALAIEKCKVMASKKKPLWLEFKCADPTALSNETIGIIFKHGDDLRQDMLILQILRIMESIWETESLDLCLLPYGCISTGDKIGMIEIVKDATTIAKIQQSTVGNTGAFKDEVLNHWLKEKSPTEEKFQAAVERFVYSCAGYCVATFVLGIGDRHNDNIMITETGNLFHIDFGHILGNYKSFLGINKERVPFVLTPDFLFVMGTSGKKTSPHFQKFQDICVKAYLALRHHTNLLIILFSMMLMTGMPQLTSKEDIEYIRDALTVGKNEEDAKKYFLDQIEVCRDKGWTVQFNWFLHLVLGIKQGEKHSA
Experimental: Briefly, LPS-stimulated monocytes and fMLP-stimulated monocytes were cultured in the presence of 2 μg/mL LPS or 50 ng/mL fMLP, respectively. After 10 minutes of stimulation, red blood cells were lysed and remaining leukocytes were fixed, permeabilized and stained with CD45, CD3, CD45RA, CD14, CD19 and p-Akt S473 (D9E clone) antibodies. […] Monocytes were gated and the percentage of positive p-Akt monocytes was measured. IC50 dose curves were generated and IC50 values calculated.
as §4

CD19 CAR-T cells = assay: CAR-T-mediated cytotoxicity against tumor cells; assay type: cell-based; conditions: addition during generation of CD19 CAR-T cells
Description: as §3

[6] = read-out: Cmax (ss); reported clinical plasma exposure at recommended phase II dose (RP2D); cited from earlier work
PI3K-γ [7] = target: T2, PI3K-γ; assay: PI3K-γ target inhibition in follicular lymphoma patients after oral dosing; assay type: in vivo; set-up: from tissue; host or cells: whole blood of follicular lymphoma patients after oral dosing
Experimental: as §1, §2
Accordingly, BID should then re-establish inhibition in this 60-70% range.

T1 sequence (O00329 whole entry): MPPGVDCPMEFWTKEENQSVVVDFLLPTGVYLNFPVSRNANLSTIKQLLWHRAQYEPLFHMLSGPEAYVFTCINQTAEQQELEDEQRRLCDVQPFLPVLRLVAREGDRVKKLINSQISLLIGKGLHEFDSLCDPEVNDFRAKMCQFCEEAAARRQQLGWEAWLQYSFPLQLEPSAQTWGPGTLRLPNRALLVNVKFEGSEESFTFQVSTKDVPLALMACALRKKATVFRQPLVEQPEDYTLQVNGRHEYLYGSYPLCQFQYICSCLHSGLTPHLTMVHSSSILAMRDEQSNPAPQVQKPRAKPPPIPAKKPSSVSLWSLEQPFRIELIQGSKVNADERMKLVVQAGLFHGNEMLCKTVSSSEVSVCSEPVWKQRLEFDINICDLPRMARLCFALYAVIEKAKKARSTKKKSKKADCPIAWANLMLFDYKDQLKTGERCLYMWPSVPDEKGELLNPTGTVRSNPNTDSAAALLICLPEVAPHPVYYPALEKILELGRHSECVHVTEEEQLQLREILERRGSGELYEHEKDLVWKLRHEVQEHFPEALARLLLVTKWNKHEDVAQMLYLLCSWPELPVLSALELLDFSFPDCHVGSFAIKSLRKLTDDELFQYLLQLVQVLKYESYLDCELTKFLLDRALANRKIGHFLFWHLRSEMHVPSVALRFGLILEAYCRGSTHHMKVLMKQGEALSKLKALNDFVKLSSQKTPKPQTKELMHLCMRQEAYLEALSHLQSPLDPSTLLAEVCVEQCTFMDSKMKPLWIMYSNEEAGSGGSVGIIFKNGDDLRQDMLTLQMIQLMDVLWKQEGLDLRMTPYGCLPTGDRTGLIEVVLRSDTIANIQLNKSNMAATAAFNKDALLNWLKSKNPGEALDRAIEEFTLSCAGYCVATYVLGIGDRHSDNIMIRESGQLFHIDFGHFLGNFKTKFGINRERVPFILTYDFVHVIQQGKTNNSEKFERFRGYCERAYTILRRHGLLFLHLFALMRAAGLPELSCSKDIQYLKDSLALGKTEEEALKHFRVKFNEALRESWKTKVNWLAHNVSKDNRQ
T1 sequence (P27986 whole entry partner): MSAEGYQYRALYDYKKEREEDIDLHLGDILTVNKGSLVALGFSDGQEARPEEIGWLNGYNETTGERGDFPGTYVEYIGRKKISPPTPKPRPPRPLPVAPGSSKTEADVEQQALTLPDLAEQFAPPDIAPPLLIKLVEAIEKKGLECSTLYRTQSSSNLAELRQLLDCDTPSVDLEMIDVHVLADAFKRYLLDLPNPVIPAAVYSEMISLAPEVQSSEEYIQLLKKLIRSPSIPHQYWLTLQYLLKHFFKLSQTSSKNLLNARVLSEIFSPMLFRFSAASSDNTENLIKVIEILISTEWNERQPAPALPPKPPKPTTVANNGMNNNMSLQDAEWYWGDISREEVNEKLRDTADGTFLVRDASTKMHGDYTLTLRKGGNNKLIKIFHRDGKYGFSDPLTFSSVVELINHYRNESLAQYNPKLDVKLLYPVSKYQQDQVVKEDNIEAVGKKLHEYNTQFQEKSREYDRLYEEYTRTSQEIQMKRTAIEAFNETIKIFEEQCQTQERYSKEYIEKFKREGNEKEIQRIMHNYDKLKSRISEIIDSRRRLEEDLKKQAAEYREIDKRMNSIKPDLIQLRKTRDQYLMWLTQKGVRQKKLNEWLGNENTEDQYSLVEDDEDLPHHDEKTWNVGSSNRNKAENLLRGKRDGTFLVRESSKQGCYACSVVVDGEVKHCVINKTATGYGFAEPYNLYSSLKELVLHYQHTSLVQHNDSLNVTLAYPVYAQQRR

| Structure (SMILES) | PI3K-δ inhibition at clinically achievable exposures (in words) (PI3K-δ [4]) | PI3K-γ inhibition at clinically achievable exposures (in words) (PI3K-γ [5]) | concentration of maximal effect on T cell expansion [3] [nM] | Cmax [6] [µM] | other results |
| --- | --- | --- | --- | --- | --- |
| CC[C@H](Nc1ncnc2[nH]cnc12)c1nc2cccc(F)c2c(=O)n1-c1ccccc1 [Idelalisib, (S)-2-(1-(9H-purin-6-ylamino)propyl)-5-fluoro-3-phenylquinazolin-4(3H)-one] | single isoform inhibition; also recorded: sufficient to inhibit PI3K-δ | not sufficient to inhibit PI3K-γ | 1000 | 4.8 | – |
| CC[C@H](Nc1ncnc2nc[nH]c12)c1oc2ccccc2c(=O)c1-c1cccc(F)c1 [Tenalisib, (S)-2-(1-((7H-purin-6-yl)amino)propyl)-3-(3-fluorophenyl)-4H-chromen-4-one] | did not meaningfully inhibit | did not meaningfully inhibit | – | – | IC50 (PI3K-δ [4]; whole blood, inhibition of p-Akt in LPS-stimulated monocytes, read-out: PI3Kδ IC50): > 50 µM; PI3Kγ IC50 (PI3K-γ [5]; whole blood, inhibition of p-Akt in fMLP-stimulated monocytes): No inhibition |
| CC(C)Oc1ccc(-c2nn([C@@H](C)c3oc4ccc(F)cc4c(=O)c3-c3cccc(F)c3)c3ncnc(N)c23)cc1F [Umbralisib] | – | – | – | 9.2 | IC50 (PI3K-γ [5]): 55 ± 16 µM |

Now from value to compound, other results behind:

| PI3K-δ inhibition at clinically achievable exposures (in words) (PI3K-δ [4]) | PI3K-γ inhibition at clinically achievable exposures (in words) (PI3K-γ [5]) | Structure (SMILES) | concentration of maximal effect on T cell expansion [3] [nM] | Cmax [6] [µM] | other results |
| --- | --- | --- | --- | --- | --- |
| inhibited both PI3K-δ and PI3K-γ | inhibited both PI3K-δ and PI3K-γ | C[C@H](Nc1ncnc2[nH]cnc12)c1cc2cccc(Cl)c2c(=O)n1-c1ccccc1 [Duvelisib, (S)-3-(1-((9H-purin-6-yl)amino)ethyl)-8-chloro-2-phenylisoquinolin-1(2H)-one] | 40 | 2.5 | degree of inhibition of PI3K-δ (PI3K-δ [1]; cycle 2 Day 1 pre (12 hour point before next dose)): decreased; inhibition at 25 mg (PI3K-δ [1]; human, follicular lymphoma patients, 25 mg oral, 1 and 4 hours after dosing): 90 to 95%; expression of T cell exhaustion markers (TIM-3, LAG-3) (T cells): reduces expression; proportion of early memory T cell populations [2]: increases the proportion of early memory T cell populations; increase in T cell expansion ([3]; T cells from human donors or CLL patients): 3 to 4 fold; cytotoxic activity of CAR-T cells to kill tumor cells (CD19 CAR-T cells): increases; degree of inhibition of PI3K-γ (PI3K-γ [7]; cycle 2 Day 1 pre): decreased; inhibition of PI3K-γ (PI3K-γ [7]; follicular lymphoma patients, 25 mg, 1 and 4 hours): 60-70% |
| not PI3K-δ | – | C[C@H](NC(=O)c1c(N)nn2cccnc12)c1cc2cccc(C#Cc3cnn(C)c3)c2c(=O)n1-c1ccccc1 [IPI-549, 2-amino-N-[(1S)-1-[8-[2-(1-methylpyrazol-4-yl)ethynyl]-1-oxo-2-phenylisoquinolin-3-yl]ethyl]pyrazolo[1,5-a]pyrimidine-3-carboxamide] | – | 9.1 | – |
